These results are taken from patent EP0552018A1, “Use of Rifabutin for delaying or preventing mycobacterial infections” (Erbamont Inc., priority 1992, dated 1993).

Data set [1] deals with Mycobacterium avium complex (MAC). Description: Multicenter, randomized, placebo controlled clinical trial: prevention or delay of MAC infection in AIDS patients. The format is in vivo, human.
For the next data set, the system named is M. tuberculosis. Description: Same clinical trial: occurrence of M. tuberculosis infections. In kind it is in vivo, human. The following applies: rifabutin 300 mg/day; three patients on the placebo arm developed M. tuberculosis infections. As to the method: The efficacy of rifabutin on the prevention of MAC disease in HIV positive patients having a CD4 count of ≦200/mm³ was assessed in a large multicenter controlled trial in the United States.
Five hundred ninety (590) patients with CD4 counts ≦200/mm³; and with no clinical evidence of MAC infection (as determined by two blood cultures) were randomly assigned to receive either rifabutin monotherapy (300 mg/day) or placebo. Nine of these patients, five in the rifabutin group and four in the placebo group, who were enrolled with presumptive negative evidence of MAC blood cultures were subsequently found to have had MAC bacteremia at baseline and were excluded from the study. Fifty-six of the 581 patients who had confirmed negative cultures at baseline developed MAC infection after having enrolled in the study. Eighteen of those 56 patients were in the rifabutin group and the other 38 were in the placebo group. After excluding seven patients from each group who were considered to be inevaluable, the treatment groups were compared with respect to the incidence of MAC infection; the observed difference was highly statistically significant (p=0.002, Chi-squared test).
Three patients on the placebo arm of the study developed M. tuberculosis infections (other than MAC) while no patients receiving rifabutin developed tuberculosis. […]

Data set [2] has as its system atypical mycobacterial infection. Nature of the data set: Same clinical trial: occurrence of atypical mycobacterial infection. In kind it is in vivo, human. The following applies: rifabutin 300 mg/day; one patient on the placebo arm developed it.
The conditions of data set [3]: cited from earlier work.

In the case of `CO[C@H]1/C=C/O[C@@]2(C)Oc3c(C)c(O)c4c(c3C2=O)C2=NC3(CCN(CC(C)C)CC3)NC2=C(NC(=O)/C(C)=C\C=C\[C@H](C)[C@H](O)[C@@H](C)[C@@H](O)[C@@H](C)[C@H](OC(C)=O)[C@@H]1C)C4=O` [rifabutin, 4-dioxo-3,4-[2-spiro-(N-isobutyl-4-piperidyl)-2,5-dihydro-1H-imidazo]-rifamycin S], in data set [1] (HIV positive patients, CD4 ≦200/mm³, rifabutin monotherapy 300 mg/day oral, of 581 patients with confirmed negative cultures at baseline, before excluding inevaluable patients), the “Patients who developed MAC infection after having enrolled in the study” value is on record as “Eighteen”. Besides, in data set [1] (analysis by Kaplan/Meier Methodology, compared with placebo), the “Time of MAC infection in patients who got a MAC infection” value is reported as “significantly later than patients on placebo”. Further, the “Likelihood of placebo patients to die or to experience a MAC event relative to patients receiving rifabutin” value in data set [1] (at any point in time, on average, Kaplan/Meier analysis) amounted to 2.3 times. In addition, in data set [1] (evaluable patients, rifabutin 300 mg/day, group total 280), the “Number of: Patients without MAC” value was 269. In addition, the “Number of: Patients with MAC” value in data set [1] (evaluable patients, rifabutin 300 mg/day, group total 280, vs placebo x^2 = 9.76, P ≅ 0.002) is 11. Also, the “Patients who developed tuberculosis” value in the data set on M. tuberculosis is recorded as “no patients”. Besides, in data set [2], the “Patients who developed atypical mycobacterial infection” value is recorded as “no patients”. Besides, in data set [3] (chloroform), the Solubility in chloroform entry is reported as “soluble”. Also, in data set [3] (methanol), the Solubility in methanol result is recorded as “soluble”. The Solubility in water result in data set [3] (water) was “very slightly soluble”.
